According to patent US20030229451A1, “Methods and systems for analyzing complex biological systems” (priority 2001, published 2003):

What was measured:
[1] = tested on: Arabidopsis thaliana plants; assay: SOA1 phenotypic analysis of herbicide-treated Arabidopsis (MIC, Tmic, leaf traits); format: in vivo; details: for leafCurling Dev. / leafTwisting Dev. / leafWidth Dev. / matureLeafAnthocyanins Dev. / matureLeafChlorosis Dev. / matureLeafNecrosis Dev. / newLeafAnthocyanins Dev. / newLeafChlorosis Dev. / newLeafNecrosis Dev. / pointedLeaves Dev.: numeric value standardized to mock treated; for tMic Dev.: time to full range of symptoms at MIC, coded; for characteristic morphological symptoms: herbicide-treated Arabidopsis
Arabidopsis thaliana = assay: MOA1 biochemical (metabolite) profiling by LC-MS and GC-MS

Structure (SMILES)	leafCurling Dev. [1]	leafTwisting Dev. [1]	leafWidth Dev. [1]	matureLeafAnthocyanins Dev. [1]	matureLeafChlorosis Dev. [1]	matureLeafNecrosis Dev. [1]	newLeafAnthocyanins Dev. [1]	newLeafChlorosis Dev. [1]	newLeafNecrosis Dev. [1]	pointedLeaves Dev. [1]	tMic Dev. [1]	Number of Metabolites Changed: (unknown #) (Arabidopsis thaliana; 20 min, p < 0.05)	Number of Metabolites Changed: Total # (Arabidopsis thaliana; 20 min, p < 0.05)	Number of Metabolites Changed: (unknown #) (Arabidopsis thaliana; 20 min, p < 0.11)	Number of Metabolites Changed: Total # (Arabidopsis thaliana; 20 min, p < 0.11)	Number of Metabolites Changed: (unknown #) (Arabidopsis thaliana; 1 hr, p < 0.05)	Number of Metabolites Changed: Total # (Arabidopsis thaliana; 1 hr, p < 0.05)	Number of Metabolites Changed: (unknown #) (Arabidopsis thaliana; 1 hr, p < 0.11)	Number of Metabolites Changed: Total # (Arabidopsis thaliana; 1 hr, p < 0.11)	characteristic morphological symptoms [1]	further results
O=C(O)COc1ccc(Cl)cc1Cl [2,4-D]	1	2	−1	1	2	0	0	1	0	0	2	2	3	8	13	3	7	15	25		Symptom Class ([1]; three-week-old Arabidopsis, phenotype class (FIG. 12)): 5
O=C(O)c1cc(Oc2ccc(C(F)(F)F)cc2Cl)ccc1[N+](=O)[O-] [Acifluorfen]	1	0	0	0	0	1	0	0	3	0	1	11	17	20	32	13	19	22	31	Necrotic leaf flecks	
Nc1nc[nH]n1 [Amitrole]	−1	0	2	0	3	0	0	4	0	0	2	6	9	13	17	8	14	20	32	leaf bleaching and leaf enlargement	
O=C(O)Cn1c(=O)sc2cccc(Cl)c21 [Benazolin]	2	2	−2	0	0	0	0	0	0	0	2										
COC(=O)c1cc(Oc2ccc(Cl)cc2Cl)ccc1[N+](=O)[O-] [Bifenox]	1	0	0	0	0	1	0	0	3	0	1									Necrotic leaf flecks	
CCSC(=O)N(CC(C)C)CC(C)C [Butylate]												10	17	21	33	12	18	22	31		
CC(C)OC(=O)Nc1cccc(Cl)c1 [Chloropropham]												8	12	10	17	5	12	10	20		
COc1c(Cl)ccc(Cl)c1C(=O)O [Dicamba]	2	2	−2	0	2	0	0	0	0	0	2										
c1cc[n+]2c(c1)-c1cccc[n+]1CC2 [Diquat]	2	0	−2	0	1	4	0	1	4	1	2									rapid and widespread leaf necrosis	
CN(C)C(=O)Nc1ccc(Cl)c(Cl)c1 [Diuron]	1	0	−2	0	2	4	0	2	4	1	1									rapid and widespread leaf necrosis	
CCc1cnc(C2=NC(C)(C(C)C)C(=O)N2)c(C(=O)O)c1 (stereo not drawn) [Imazethapyr]	1	1	0	3	0	0	0	2	0	0	2									anthocyanin accumulation in the older leaves accompanied by chlorosis of the newly emerging leaves	
CCC(C)(CC)c1cc(NC(=O)c2c(OC)cccc2OC)on1 [Isoxaben]												12	26	21	45	16	25	33	55		
CSc1nnc(C(C)(C)C)c(=O)n1N [Metribuzin]	1	0	−2	0	2	4	0	2	4	1	1									rapid and widespread leaf necrosis	
CNc1cnn(-c2cccc(C(F)(F)F)c2)c(=O)c1Cl [Norflurazon]												27	38	36	55	5	6	8	12		
